Reference: patent publication US20210246122A1, “Triazine Compounds and Uses Thereof” (Aduro Biotech, Inc., priority 2018, published 2021)

Target: T1, Human cGAS amino acids 155-522 (Homo sapiens, UniProt Q8N884)
T1 construct: hexahistidine tag (N, cleaved yes); made in house; host or cells: E. coli BL21 DE3 Rosetta 2
Assay: cGAS activity assay (DNA-activated cGAS, remaining ATP measured by Kinase-Glo Max luciferase assay)
Format: biochemical
Conditions: 300 nM purified cGAS, 1 μM dsDNA, 250 μM ATP, 100 μM GTP, 37° C. for 1.25 hours
Description: IC50 values were determined as follows:
Human cGAS sequence encoding amino acids 155-522 was cloned into a pET (EMD Millipore) based expression plasmid. The resulting construct contained a tandem N-terminal hexahistidine tag, maltose binding protein fusion followed by a tobacco etch virus protease cleavable linker preceding cGAS amino acids 155-522.
Construct sequence: Amino acids 155-522, Human cGAS
Protein was expressed and purified from E. coli BL21 DE3 Rosetta 2 (EMD Millipore) cells using standard techniques. Cells were grown in 2× yeast extract tryptone medium and expression was initiated via the addition of isopropyl β-D-1-thiogalactopyranoside. Expression proceeded overnight at 18° C. Cells were harvested by centrifugation and subsequently lysed via sonication. Insoluble fraction was removed by centrifugation. Maltose binding protein (MBP) fusion proteins were purified on a dextrin sepharose column (GE Healthcare) and the MBP tag was removed using tobacco etch virus protease overnight during dialysis. Protein was further purified on a heparin column (GE Healthcare) and eluted using a NaCl gradient. Column fraction were pooled and further purified on a Superdex 75 gel filtration column (GE Healthcare). Protein was quantified using 280 nm absorbance. Protein was then flash frozen in liquid nitrogen and stored at −80° C. until use.
Potential antagonists were diluted in 100% dimethyl sulfoxide and added to the reaction. Final dimethyl sulfoxide concentration was 5%. The compounds were tested from 1 μM with either 3- or 4-fold serial dilutions down to 0.000051 or 0.000004 μM respectively.
Two complementary DNA oligos (IDT DNA) were annealed by slow cooling from 95° C. The resulting double stranded DNA was used to activate cGAS.
Reactions were performed at 37° C. for 1.25 hours. Reaction buffer: 20 mM Tris HCl pH 9, 100 mM NaCl, 5 mM MgCl2, 0.1 mg/ml bovine gamma globulin, 250 μM adenosine triphosphate, 100 μM guanosine triphosphate, 0.5 mM Tris(2-carboxyethyl)phosphine hydrochloride, 1 μM double stranded DNA and 300 nM purified cGAS protein.
Reactions were stopped and ATP levels in the reaction were measured using a luciferase based assay. Promega Kinase-Glo Max Assay. Luminescence was measured on a plate reader (Molecular Devices). Values were normalized to control wells lacking compound.

T1 sequence (Q8N884 157-522): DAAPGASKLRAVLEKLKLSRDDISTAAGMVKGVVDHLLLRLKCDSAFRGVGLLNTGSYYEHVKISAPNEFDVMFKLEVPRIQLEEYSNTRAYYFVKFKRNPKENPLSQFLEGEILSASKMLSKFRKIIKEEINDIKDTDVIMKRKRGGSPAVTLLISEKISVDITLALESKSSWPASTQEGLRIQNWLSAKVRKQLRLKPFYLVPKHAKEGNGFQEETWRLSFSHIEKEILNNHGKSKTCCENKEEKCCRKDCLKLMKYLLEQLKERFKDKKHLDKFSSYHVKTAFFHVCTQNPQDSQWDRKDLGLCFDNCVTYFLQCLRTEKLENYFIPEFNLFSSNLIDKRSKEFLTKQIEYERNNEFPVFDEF

SMILES | IC50
COC(=O)[C@H](Cc1ccc(C#N)cc1)Nc1nc(NCc2nc3cc(F)ccc3[nH]2)nc(Nc2cccc(CN3CCN(C(=O)C4CCN(S(C)(=O)=O)CC4)CC3)c2)n1 [TA1079, methyl (S)-3-(4-cyanophenyl)-2-((4-(((5-fluoro-1H-benzo[d]imidazol-2-yl)methyl)amino)-6-((3-((4-(1-(methylsulfonyl)piperidine-4-carbonyl)piperazin-1-yl)methyl)phenyl)amino)-1,3,5-triazin-2-yl)amino)propanoate] | > 250 µM
COC(=O)[C@H](Cc1ccc(C#N)cc1)Nc1nc(NCc2nnn[nH]2)nc(Nc2cccc(CN3CCN(C(=O)c4nccnc4O)CC3)c2)n1 [TA1069, methyl (S)-2-((4-(((1H-tetrazol-5-yl)methyl)amino)-6-((3-((4-(3-hydroxypyrazine-2-carbonyl)piperazin-1-yl)methyl)phenyl)amino)-1,3,5-triazin-2-yl)amino)-3-(4-cyanophenyl)propanoate] | > 250 µM
COC(=O)[C@@H](Cc1ccc(C#N)cc1)Nc1nc(NCc2nc3cc(F)ccc3[nH]2)nc(Nc2cccc(CN3CCNCC3)c2)n1 [TA1019, methyl (R)-3-(4-cyanophenyl)-2-((4-(((5-fluoro-1H-benzo[d]imidazol-2-yl)methyl)amino)-6-((3-(piperazin-1-ylmethyl)phenyl)amino)-1,3,5-triazin-2-yl)amino)propanoate] | > 250 µM
COC(=O)[C@H](Cc1ccc(C#N)cc1)Nc1nc(NCc2ccccc2)nc(Nc2cccc(CN3CCNCC3)c2)n1 [TA1049, methyl (S)-2-((4-(benzylamino)-6-((3-(piperazin-1-ylmethyl)phenyl)amino)-1,3,5-triazin-2-yl)amino)-3-(4-cyanophenyl)propanoate] | > 250 µM
CN(C)C(=O)[C@H](Cc1ccc(C#N)cc1)Nc1nc(Cl)nc(Nc2cccc(CN3CCNCC3)c2)n1 [TA1009, (S)-2-((4-chloro-6-((3-(piperazin-1-ylmethyl)phenyl)amino)-1,3,5-triazin-2-yl)amino)-3-(4-cyanophenyl)-N,N-dimethylpropanamide] | > 250 µM
COC(=O)[C@H](Cc1ccc(C#N)cc1)Nc1nc(NCc2nccn2C)nc(Nc2cccc(CN3CCN(C(=O)c4nccnc4O)CC3)c2)n1 [TA1034, methyl (S)-3-(4-cyanophenyl)-2-((4-((3-((4-(3-hydroxypyrazine-2-carbonyl)piperazin-1-yl)methyl)phenyl)amino)-6-(((1-methyl-1H-imidazol-2-yl)methyl)amino)-1,3,5-triazin-2-yl)amino)propanoate] | > 250 µM

Second part, the molecule after the results:

IC50 | SMILES
> 250 µM | COC(=O)[C@H](Cc1ccc(C#N)cc1)Nc1nc(NCc2nc3cc(F)ccc3[nH]2)nc(Nc2cccc(CN3CCN(C(C)=O)CC3)c2)n1 [TA1075, methyl (S)-2-((4-((3-((4-acetylpiperazin-1-yl)methyl)phenyl)amino)-6-(((5-fluoro-1H-benzo[d]imidazol-2-yl)methyl)amino)-1,3,5-triazin-2-yl)amino)-3-(4-cyanophenyl)propanoate]
> 250 µM | COC(=O)[C@H](Cc1ccc(C#N)cc1)Nc1nc(Nc2cccc(CN3CCN(C(=O)c4cnccn4)CC3)c2)nc(N(C)CCc2nc3ccc(OC)cc3[nH]2)n1 [TA1054, methyl (S)-3-(4-cyanophenyl)-2-((4-((2-(6-methoxy-1H-benzo[d]imidazol-2-yl)ethyl)(methyl)amino)-6-((3-((4-(pyrazine-2-carbonyl)piperazin-1-yl)methyl)phenyl)amino)-1,3,5-triazin-2-yl)amino)propanoate]
> 250 µM | COC(=O)[C@H](Cc1ccc(C#N)cc1)Nc1nc(Nc2cccc(CN3CCNCC3)c2)nc(OC)n1 [TA1028, methyl (S)-3-(4-cyanophenyl)-2-((4-methoxy-6-((3-(piperazin-1-ylmethyl)phenyl)amino)-1,3,5-triazin-2-yl)amino)propanoate]
